In a melting point compilation (Tetko et al.; mined from patent text by program, amines drawn as free bases though some values may be those of a salt):
Residues, ends and D or L forms follow the SMILES beside them. *: point of attachment. Cbz = O=C(OCc1ccccc1)*

Row | SMILES | melting point [°C]
1 | N#Cc1cc(NC(=O)c2cc3ccccc3s2)ccc1N1CCC(O)CC1 | 224 to 225
2 | Cc1c(C(=O)Nc2ccc(SCCCO)c(C#N)c2)cnn1-c1ccc(Cl)cc1 | 165
3 | COc1ccc2[nH]c3c(c2c1)C(=O)/C(=C/c1nc[nH]c1C)CC3 | 133 to 135
4 | CCOCCNC1CCCCC1Cc1ccc(-c2cccc(N)n2)cc1 (stereo unspecified) | 70 to 90
5 | CC(C)(C)n1c(Cl)c(-c2ccc(Oc3ccccc3)cc2)c2c(N)ncnc21 | 137 to 138
6 | N=C(N)Nc1ncc(CSCCN)s1 | 150 to 153
7 | NC(=O)N1CCC(Oc2c(F)c(F)c(F)c(F)c2F)(c2ccccc2)CC1 | 155 to 160
8 | CCCN(CCC)C(=O)Cc1cn(Cc2ccccc2Br)c2ccccc12 | 118 to 119
9 | CCOC(=O)c1ncc2[nH]c3ccc(C4CCCC(=O)C4)cc3c2c1C (stereo unspecified) | 182 to 189
10 | CC(=O)OC[C@H]1[C@H](O)[C@@H](O)[C@@H](O)[C@@H]2NC(=O)c3cc4c(cc3[C@@H]12)OCO4 | > 200
11 | C=CCOc1ccc(C(=O)CC(=O)C(C)(C)C)cc1OC | 40
12 | COc1ccccc1OCC1SCCN1C(=O)CS (stereo unspecified) | 86 to 87
13 | Nc1nccn2c(C3CCC3)nc(-c3cccc(OCc4ccccc4)c3F)c12 | 88 to 89
14 | CCOC(=O)c1[nH]c2cccc3c2c1CCC3O (stereo unspecified) | 166 to 170
15 | Cc1onc(-c2ccco2)c1-c1ccccc1 | 93 to 96
16 | COc1ccc(CCN2CCC(N3Cc4cc(Cl)c(S(N)(=O)=O)cc4C3=O)CC2)cc1 | 125 to 135
17 | O=C(CCCCCOc1ccccc1OCc1ccccc1)C(F)(F)F | 31 to 32
18 | O=C(O)Cc1c(C(=O)C2CCCCC2)[nH]c2cc(Cl)ccc12 | 206 to 209
19 | CCCCCCCCCCCCCCCc1ccc(C(=O)c2ccccc2)c(O)c1 | 46 to 47

Row | SMILES | melting point [°C]
20 | COc1ccc(Cc2nc(C)c[nH]2)cc1 | 108 to 109
21 | CSc1ccc(CCCC(=O)O)cc1 | 53 to 55
22 | CNC(=O)NCCn1c(-c2ccc(CN3CCOCC3)cc2C)csc1=Nc1ccc(F)c(C)c1 | 130 to 135
23 | CCNC(=O)NCc1ccc(/C=C/C(c2cc(Cl)c(Cl)c(Cl)c2)C(F)(F)F)c2ccccc12 (stereo unspecified) | 84 to 87
24 | COc1ccc(-c2ccc(-c3ccc(C(=O)O)cc3)cc2-c2ccc3c(c2)C(C)(C)CCC3(C)C)cc1 | 112 to 115
25 | CC(C)[C@H](NC(=O)OC(C)(C)C)[C@H]1CCn2c(c(C3=C(c4cn(-c5ccccc5)c5ccccc45)C(=O)NC3=O)c3ccccc32)C1 | 165 to 168
26 | CCCCN(C(=O)c1cnc(N2CC(C)(C)NC2=O)nc1N)c1cccc(C(F)(F)F)c1 | 154 to 155
27 | O=C(NCCO[N+](=O)[O-])c1ccsc1 | 100 to 102
28 | CCOC(=O)Cc1ccc(OCCCN2C(=O)c3ccccc3C2=O)c(OC)c1 | 70 to 72
29 | O=C1CC(=O)C2CCC1C2 | 129 to 130
30 | C=C1C(O)C(COC(=O)CCCCCCCCCCCCCCCCC)OC1n1ccc(NC(=O)CCCCCCCCCCCCCCCCC)nc1=O (stereo unspecified) | 135 to 139
31 | COc1ccc(OC(=O)N2c3cc(Cl)ccc3NC(=O)[C@@H]2C)cc1 | 187 to 190
32 | CC(=O)OCC(=O)C1(OC(C)=O)C(C)CC2C3CC(C)C4=CC(=O)C=CC4(C)C3C(O)CC21C (stereo unspecified) | 124 to 126
33 | c1ccc2c(c1)-c1ccccc1C21c2ccccc2-c2ccc(-n3ccnc3-c3nccn3-c3ccc4c(c3)C3(c5ccccc5-c5ccccc53)c3ccccc3-4)cc21 | 404 to 412
34 | CC(C)(C)C1CC(CCC(=O)O)(CCC(=O)O)C(=O)C(CCC(=O)O)(CCC(=O)O)C1 | 209 to 212
35 | O=c1c(F)cn(C2CCCO2)c(=O)n1C1CCCO1 (stereo unspecified) | 105 to 108
36 | CCCCCCCCc1cccc(N2CC(=O)NC(=O)N2)c1 | 169 to 171
37 | CCC1(CCCCN2CCc3sccc3C2)C(=O)Nc2ccc(C)cc21 (stereo unspecified) | 138 to 140
38 | NCCc1c[nH]c(=O)[nH]c1=O | 214 to 220

Row | SMILES | melting point [°C]
39 | CCCc1cnc(N2CCC(c3ccc(COc4ccc(C#N)c(F)c4)nc3)CC2)nc1 | 118 to 120
40 | O=C(NNC(=O)c1ccccc1O)c1ccccc1O | 303
41 | O=C(CN1CCCC1)Nc1ccc2c(c1)C(=O)c1cc(NC(=O)CN3CCCC3)ccc1C2=O | 201
42 | O=C(c1ccc(F)cc1)C1CCN(CCN(C(=O)c2cccc([N+](=O)[O-])c2)c2ccc(F)cc2)CC1 | 97 to 113
43 | O=Cc1c[nH]c2c1ccc1c3cccc(F)c3[nH]c12 | > 250
44 | O=c1cc2c(n[nH]1)-c1ccccc1SCC2 | 311 to 313
45 | CNC(=O)NCC1OC(n2cc(C)c(=O)[nH]c2=O)CC1O (stereo unspecified) | 238 to 239
46 | CC(=O)NC1CCN(Cc2cnc3cc(NC(=O)c4ccc(-c5ccc(Cl)cc5)cc4)ccc3c2)C1 (stereo unspecified) | > 285
47 | O=C(Nc1cc(OCCCON=Cc2ccc(-c3ccccc3)cc2)ccc1C(=O)O)c1ccc(OC(F)(F)F)cc1 | 188
48 | O=[N+]([O-])c1ccc2c(c1)OC(c1ccccc1)O2 (stereo unspecified) | 84 to 85
49 | CCCn1nc2c(N)nc3ccccc3c2c1CC(C)(C)NC(=O)C1CCCCC1 | 190 to 191
50 | Brc1cccc2nc3[nH]c4ccccc4nc-3c12 | > 300
51 | Cn1c(=O)cc(-c2cccc(Cl)c2)c2cc(C(=O)c3ccc(I)cc3)ccc21 | 184
52 | CC(Oc1ccc2nc(NC(=O)NCCN3CCOCC3)sc2c1)c1c(Cl)cccc1Cl (stereo unspecified) | 165 to 168
53 | Cc1c(NC(=O)c2ccc(-c3ccc(F)cc3)c(F)c2)ccc2cc(CN3CCCC3)cnc12 | 176 to 178
54 | O=C(O)c1cc(NS(=O)(=O)c2ccc([N+](=O)[O-])cc2)ccc1O | 239 to 240
55 | COc1ccc(CC(=O)O)c(C(C)=O)c1 | 115 to 116
56 | CN(C)CCN(C(=O)c1cc([N+](=O)[O-])ccc1Br)c1ccnc2cc3c(cc12)OCO3 | 204 to 205
57 | CCOC(=O)c1ccc(N2CCC(NCC(O)COc3ccc(N=Nc4ccc([N+](=O)[O-])cc4)nc3)CC2)nc1 (stereo unspecified) | 172

Further lines, results first:

Row | melting point [°C] | SMILES
58 | 109 to 112 | Cc1nc2ccc3c(c2o1)OC(CN1CCCCC1)CO3 (stereo unspecified)
59 | 130 to 132 | Cc1c(-c2ccc(C(=O)O)cc2)ccc(-c2ccccc2)c1-c1ccc2c(c1)C(C)(C)CCC2(C)C
60 | 54 to 55 | CCCCCCn1c2ccccc2c2ccc(CO)cc21
61 | 106 to 108 | CC(=O)c1cn2c3c(cccc13)CCC2
62 | 102 to 103 | CCOC(=O)CN(C(=O)C(F)(F)F)C(Sc1ccccc1)P(=O)(O)ONC(C)C (stereo unspecified)
63 | 68 | O=C(NC/C=C/c1ccccc1)c1ccccc1F
64 | 149 to 151 | CC1(C)CCC(C)(C)c2nc3c(nc21)CCc1c(-c2ccc(C(=O)O)cc2)cn(Cc2cccnc2)c1-3
65 | 145 to 146 | CC(=O)Nc1nc(CO)c(Cl)s1
66 | 40 | CCCCOCCCNC(=O)C(C)(C(C)C)C(C)C
67 | 103 to 104 | CCCCN(CCCC)CC(=O)N1c2ccccc2N(CCCC)C(=O)c2cnc(-c3ccccc3)nc21
68 | 232 to 233 | O=C1NC(=O)C(c2c3n(c4ccccc24)CCC(CO)C3)=C1c1ccccc1Cl (stereo unspecified)
69 | 43 to 46 | CCOC(=O)c1ccc(N(Cc2ccc(Cl)cc2)C(=O)OCC)cc1
70 | 97 | CCc1ccc2c(c1)C(O)Cc1ccc(F)cc1S2 (stereo unspecified)
71 | 130 to 133 | CSC(Nc1cc(C(F)(F)F)cc(C(F)(F)F)c1)=C(C#N)S(=O)(=O)C(C)C
72 | 244 to 245 | Cc1c(Cc2ccc(C(C)C)cc2)c2c(c(C)c1NC(=O)CC(C)(C)C)C(O)C(C)(C)O2 (stereo unspecified)
73 | 173 to 178 | COc1cc2c(cc1OC)CN(CC(=O)Nc1ccc([N+](=O)[O-])cc1)CC2
74 | 204 to 207 | COC1(c2cccc(S(=O)(=O)c3ccc4c(ccc(=O)n4C)c3)c2)CCOCC1
75 | 195 to 201 | COC(=O)c1cc(-c2cccc(C(F)(F)F)c2)c[nH]c1=O
76 | 125 to 128 | CC(C)C1(C)N=C2c3ncccc3C(=O)N2C1=O (stereo unspecified)
77 | 50 to 54 | Cc1ccc(C(F)(F)F)c2sc(Sc3ccc4c(c3)CCC3N(C)C(=O)CCC43C)nc12 (single isomer, unassigned; (+))

Row | melting point [°C] | SMILES
78 | 66 to 69 | COc1cc(Cl)ccc1NC(=O)C(C)(C)C
79 | 76 to 77 | OCCCc1ccccc1OCc1coc(/C=C/c2ccccc2)n1
80 | 216 to 219 | Cc1c(C)c(N2CCN(c3ccc(OC(F)(F)F)cc3)CC2)c(C)c2c1OC(C)(C)C2
81 | 199 | CCOC(=O)C1=C(C)NN=C(C(=O)OC)C1c1ccccc1C#N (stereo unspecified)
82 | 114 to 116 | CC(C)c1cccc(C(C)C)c1Oc1ccc(C#N)c(C#N)c1
83 | 191 to 194 | COc1cc(Nc2nccc(-c3sc(Nc4ccccc4)nc3C)n2)cc(OC)c1
84 | 178 to 180 | O=C1NCCCN1C1CCN(Cc2ccccc2)CC1
85 | 113 to 116 | COC(=O)[C@H](Cc1ccccc1)NC(=O)[C@H](CC(=O)O)NC(=O)OCc1ccccc1 (Cbz-Asp-Phe-OMe)
86 | 102 to 103 | CCCc1nn(-c2ccc(C(F)(F)F)cn2)cc1C(=O)OCC
87 | 122 to 123 | NC[C@@H]1CCCc2cc(S(=O)(=O)Nc3cccc(F)c3)ccc21
88 | 188 to 191 | O=c1ccn(C2C=CC(COC(c3ccccc3)(c3ccccc3)c3ccccc3)O2)c(=O)[nH]1 (stereo unspecified)
89 | 75 to 76 | Cc1cccc(N2CCN(C(=O)CCCCCCC(=O)NO)CC2C)c1 (stereo unspecified)
90 | 114 to 115 | OC1(c2ccc3c(c2)OCO3)CCN(CC=Cc2ccccc2)CC1
91 | 250 to 251 | COC(=O)c1cc(NC(=O)C2CCCCC2)c2cc(Cc3ccc(F)cc3)cnc2c1O
92 | 142 to 143 | CCc1c(C(=O)c2cc(C)cc(C)c2)n(C/C=C/COC)c(=O)[nH]c1=O
93 | 150 to 155 | CCCCCCOc1ccc(-c2ncc(-c3ccc(O)c(F)c3F)cn2)cn1
94 | 98 to 100 | COc1cc(Cn2cccc3ncnc2-3)ccc1C(=O)N(C(C)C)C1CCCCC1
95 | 188 to 190 | O=C(O)/C=C/C#Cc1cccc(S(=O)(=O)Nc2ccccc2)c1
96 | 113 to 115 | c1ccc2c(c1)SCCCN2N=C1CCNCC1
